The record followed here is patent publication US20210371804A1, “Videomicroscopy of contractile cell cultures and cell culture methods using same” (Institut de Cardiologie de Montréal, priority 2020, published 2021).

For this experiment, the system named is neonatal cardiomyocytes. As to the kind of experiment: Videomicroscopy of contraction (composite signal ΔS) of neonatal cardiomyocyte monolayers. The format is cell-based, rat. The conditions noted are these: 1 minute after injection. How it is done: All animal-handling procedures were concordant with the Canadian Council on Animal Care guidelines and were approved by the institutional Animal Research Ethics Committee. Isolation was performed according to the protocol of the neonatal cardiomyocyte isolation kit from Worthington. In summary, one to three days old rats (Sprague-Dawley, Charles River) were sacrificed by decapitation. Beating heart were removed from the rats and immediately put in cold Ca^2+ and Mg^2+-free Hank's Balanced Salt Solution. Ventricular muscle was selected by excision and tissue was minced on ice into 1-3 mm^3 pieces. The mixture was subjected to purified enzymatic digestion (trypsin and collagenase). Isolated cells (enriched cardiomyocytes) were counted and seeded at a density of 10^6 cells/mL in the seeding area of the membrane pre-coated with 0.2% porcine-derived gelatin (G1890, Sigma) and 0.00125% fibronectin solution (F1141, Sigma). Cells were grown for 24 hours in DMEM (319-050-CL, Wisent) with 5% fetal bovine serum (FBS, SH30396.03, Fisher Scientic Co. Ltd) and 1% penicillin/streptomycin (450-201-EL, Wisent). Cardiomyocytes were then FBS starved with 1% penicillin/streptomycin in DMEM 24 h prior to the experiments. Acute effects of the β-adrenergic agonist, isoproterenol (ISO, 16504, Sigma-Aldrich) was studied by videomicroscopy with final concentration of 100 nM at 1 minute after injection. […]

As to `CC(C)NCC(O)c1ccc(O)c(O)c1` (centres unmarked) [ISO, isoproterenol], under “ISO 100 nM, 0.146 for CTL, <T> and group effects p<0.001”, the “slope of the linear regression of <RatioC/R> as a function of <T>” value is recorded as 0.490. Where the note is “ISO final concentration 100 nM, vs. 1.9±2.4 s in CTL, p<0.05”, this molecule showed a period of activity of 0.9 ± 0.6 s.
